Literature values as cited in PMC10343355, “Finding the Right Solvent: A Novel Screening Protocol for Identifying Environmentally Friendly and Cost-Effective Options for Benzenesulfonamide” (Molecules, 2023).
Read-outs that look alike come from different tables or passages of the source.

Set-up: method as in Li et al.
Conditions: ref Li et al., cited from earlier work

## NS(=O)(=O)c1ccccc1 [BSA, Benzenesulfonamide]
Acetonitrile, 0.00 °C
  log(x1)exp: -1.46
Acetonitrile, 6.00 °C
  log(x1)exp: -1.40
Acetonitrile, 10.30 °C
  log(x1)exp: -1.35
Acetonitrile, 15.80 °C
  log(x1)exp: -1.30
Acetonitrile, 20.10 °C
  log(x1)exp: -1.25
Acetonitrile, 25.70 °C
  log(x1)exp: -1.19
Acetonitrile, 30.00 °C
  log(x1)exp: -1.14
Acetonitrile, 35.00 °C
  log(x1)exp: -1.09
Acetonitrile, 40.00 °C
  log(x1)exp: -1.03
Acetonitrile, 44.50 °C
  log(x1)exp: -0.98
Acetonitrile, 50.00 °C
  log(x1)exp: -0.93
Cyclopentanone, 0.00 °C
  log(x1)exp: -0.86
Cyclopentanone, 6.00 °C
  log(x1)exp: -0.84
Cyclopentanone, 10.70 °C
  log(x1)exp: -0.82
Cyclopentanone, 16.00 °C
  log(x1)exp: -0.80
Cyclopentanone, 20.60 °C
  log(x1)exp: -0.78
Cyclopentanone, 26.00 °C
  log(x1)exp: -0.75
Cyclopentanone, 30.60 °C
  log(x1)exp: -0.73
Cyclopentanone, 36.00 °C
  log(x1)exp: -0.70
Cyclopentanone, 40.20 °C
  log(x1)exp: -0.68
Dichloromethane, 0.00 °C
  log(x1)exp: -2.87
Dichloromethane, 6.00 °C
  log(x1)exp: -2.76
Dichloromethane, 10.30 °C
  log(x1)exp: -2.67
Dichloromethane, 15.80 °C
  log(x1)exp: -2.56
Dichloromethane, 20.10 °C
  log(x1)exp: -2.48
Dichloromethane, 25.70 °C
  log(x1)exp: -2.37
Dichloromethane, 30.00 °C
  log(x1)exp: -2.31
Dichloromethane, 35.00 °C
  log(x1)exp: -2.22
Dichloromethane, 39.00 °C
  log(x1)exp: -2.16
Ethyl Acetate, 0.00 °C
  log(x1)exp: -1.49
Ethyl Acetate, 6.00 °C
  log(x1)exp: -1.44
Ethyl Acetate, 10.30 °C
  log(x1)exp: -1.41
Ethyl Acetate, 15.80 °C
  log(x1)exp: -1.37
Ethyl Acetate, 20.10 °C
  log(x1)exp: -1.33
Ethyl Acetate, 25.70 °C
  log(x1)exp: -1.29
Ethyl Acetate, 30.00 °C
  log(x1)exp: -1.25
Ethyl Acetate, 35.00 °C
  log(x1)exp: -1.21
Ethyl Acetate, 40.00 °C
  log(x1)exp: -1.17
Ethyl Acetate, 44.50 °C
  log(x1)exp: -1.13
Ethyl Acetate, 50.00 °C
  log(x1)exp: -1.09
Ethyl Formate, 0.00 °C
  log(x1)exp: -1.74
Ethyl Formate, 6.00 °C
  log(x1)exp: -1.69
Ethyl Formate, 10.30 °C
  log(x1)exp: -1.64
Ethyl Formate, 15.80 °C
  log(x1)exp: -1.59
Ethyl Formate, 20.10 °C
  log(x1)exp: -1.54
Ethyl Formate, 25.70 °C
  log(x1)exp: -1.48
Ethyl Formate, 30.00 °C
  log(x1)exp: -1.44
Ethyl Formate, 35.00 °C
  log(x1)exp: -1.38
Ethyl Formate, 40.00 °C
  log(x1)exp: -1.33
Ethyl Formate, 44.50 °C
  log(x1)exp: -1.28
Ethyl Formate, 50.00 °C
  log(x1)exp: -1.22
Isobutanol, 0.00 °C
  log(x1)exp: -2.41
Isobutanol, 6.00 °C
  log(x1)exp: -2.35
Isopentanol, 0.00 °C
  log(x1)exp: -2.38
Isopentanol, 6.00 °C
  log(x1)exp: -2.31
Isopentanol, 10.70 °C
  log(x1)exp: -2.25
Isopentanol, 16.00 °C
  log(x1)exp: -2.17
Isopentanol, 20.60 °C
  log(x1)exp: -2.09
Isopentanol, 26.00 °C
  log(x1)exp: -2.00
Isopentanol, 30.60 °C
  log(x1)exp: -1.92
Isopentanol, 36.00 °C
  log(x1)exp: -1.83
Isopentanol, 40.20 °C
  log(x1)exp: -1.76
Isopentanol, 46.00 °C
  log(x1)exp: -1.68
Isopentanol, 51.30 °C
  log(x1)exp: -1.60
Methanol, 0.00 °C
  log(x1)exp: -1.53
Methanol, 6.00 °C
  log(x1)exp: -1.49
Methanol, 10.30 °C
  log(x1)exp: -1.45
Methanol, 15.80 °C
  log(x1)exp: -1.39
Methanol, 20.10 °C
  log(x1)exp: -1.34
Methanol, 25.70 °C
  log(x1)exp: -1.27
Methanol, 30.00 °C
  log(x1)exp: -1.21
Methanol, 40.00 °C
  log(x1)exp: -1.09
Methanol, 44.50 °C
  log(x1)exp: -1.03
Methanol, 50.00 °C
  log(x1)exp: -0.97
n-Butanol, 46.00 °C
  log(x1)exp: -1.56
n-Butanol, 51.30 °C
  log(x1)exp: -1.49
n-Pentanol, 36.00 °C
  log(x1)exp: -1.78
n-Pentanol, 40.20 °C
  log(x1)exp: -1.73
n-Pentanol, 46.00 °C
  log(x1)exp: -1.63
n-Pentanol, 51.30 °C
  log(x1)exp: -1.56
n-Propanol, 0.00 °C
  log(x1)exp: -2.09
n-Propanol, 6.00 °C
  log(x1)exp: -2.04
n-Propanol, 10.70 °C
  log(x1)exp: -1.99
n-Propanol, 16.00 °C
  log(x1)exp: -1.91
n-Propanol, 20.60 °C
  log(x1)exp: -1.84
n-Propanol, 26.00 °C
  log(x1)exp: -1.76
n-Propanol, 30.60 °C
  log(x1)exp: -1.68
n-Propanol, 36.00 °C
  log(x1)exp: -1.60
n-Propanol, 40.20 °C
  log(x1)exp: -1.53
n-Propanol, 46.00 °C
  log(x1)exp: -1.44
n-Propanol, 51.30 °C
  log(x1)exp: -1.37
Solvent Isobutanol, T 10.70 °C, mole fraction solubility
  log(x1)exp: -2.27
Solvent Isobutanol, T 16.00 °C, mole fraction solubility
  log(x1)exp: -2.18
Solvent Isobutanol, T 20.60 °C, mole fraction solubility
  log(x1)exp: -2.09
Solvent Isobutanol, T 26.00 °C, mole fraction solubility
  log(x1)exp: -2.00
Solvent Isobutanol, T 30.60 °C, mole fraction solubility
  log(x1)exp: -1.92
Solvent Isobutanol, T 36.00 °C, mole fraction solubility
  log(x1)exp: -1.83
Solvent Isobutanol, T 40.20 °C, mole fraction solubility
  log(x1)exp: -1.75
Solvent Isobutanol, T 46.00 °C, mole fraction solubility
  log(x1)exp: -1.67
Solvent Isobutanol, T 51.30 °C, mole fraction solubility
  log(x1)exp: -1.59
